Data: PMC6274495, “Purification and Characterization of a White Laccase with Pronounced Dye Decolorizing Ability and HIV-1 Reverse Transcriptase Inhibitory Activity from Lepista nuda” (Molecules, 2016)
Where a name gives a salt, the structure may show the parent alone.

Tested on: T1, L. nuda laccase
T1 construct: gene EC 1.10.3.2; native, purified from culture broth (fraction SU3); 56 kDa monomer; white laccase
Test: spectrophotometric oxidation, Lineweaver-Burk plot
Format: biochemical, Collybia nuda
Conditions: HAc-NaAc buffer pH 4.6, 25 °C

For `CCn1c(=NN=c2sc3cc(S(=O)(=O)O)ccc3n2CC)sc2cc(S(=O)(=O)O)ccc21` [ABTS, 2,7-azinobis(3-ethylbenzothia-zolone-6-sulfonic acid) diammonium salt], the Km was 190 µM.
